Test results from US20160052898A1, “NOVEL COMPOUNDS” (BAYER PHARMA AKTIENGESELLSCHAFT, priority 2013, published 2016).

Assays:
Format in all cases: cell-based
[1] = tested on: constitutive active colorectal cancer cell (CRC) Wnt pathway; assay: HCT116 Super TopFlash cellular reporter assay (constitutive active Wnt pathway); conditions: Homo sapiens, HCT-116, 36 h, HCT116 TOP reporter cells, luciferase expression, 36 hours incubation, 50 μM to 15 nM
Procedure, shortened: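 HCT116 cells (β-catenin ΔS45) stably carrying Super TopFlash, with a parallel FOP-control line, were plated 24 h ahead. They were exposed 36 h at 37 °C, 5% CO2 to compound from a 50 μM–15 nM, 3.16-fold pre-dilution series in CAFTY buffer (pH 7.4, 2 mM Ca2+, 0.01% BSA). Wnt signalling was read as luciferase luminescence.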

[2] = tested on: HCT116 FOP control reporter cell line; assay: HCT116 FOP control vector reporter assay (non-functional TCF elements); conditions: Homo sapiens, HCT-116, 36 h, HCT116 FOP control reporter cells, luciferase expression, 36 hours incubation, 50 μM to 15 nM; read-out: HCT116 FOPFlash IC50
Procedure, shortened: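 Stable HCT116 line carrying the non-functional FOP luciferase construct, 10000 cells/well plated 24 hrs before. Compounds 50 μM to 15 nM (3.16-fold steps) in CAFTY buffer pH 7.4 with 2 mM Ca2+, 36 hours at 37° C; luciferase luminescence read.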

wildtype Wnt pathway = assay: HEK293 Super TopFlash cellular reporter assay, Wnt-3a stimulated (wildtype Wnt pathway); conditions: Homo sapiens; HEK293 TOP reporter cells, EC50 concentration of recombinant Wnt-3a, 16 hours incubation; read-out: HEK TOP OncoFlash IC50
Procedure: (§1) In order to determine the inhibitory activity of compounds for the WT Wnt signaling pathway, the Super TopFlash vector respectively FOP vector were cotransfected with pcDNA3 into HEK293 and stable transfected HEK293 cells were isolated by antibiotic selection. […] The recombinant human Wnt-3a was thereby used between 2500 and 5 ng/ml in two-fold dilution steps. […] Measurement of luciferase expression was done as described for the constitutive active Wnt assay.
In order to discover and characterize small molecules which inhibit the wildtype Wnt pathway, a cellular reporter assay was employed. The corresponding assay cell was generated by transfection of the mammalian cell line HEK293 (ATCC, #CRL-1573) with the Super TopFlash vector (Morin, Science 275, 1997, 1787-1790; Molenaar et al., Cell 86 (3), 1996, 391-399). The HEK293 cell line is cultivated at 37° C. and 5% CO2 in DMEM (Life Technologies, #41965-039), supplemented with 2 mM glutamine, 20 mM HEPES, 1.4 mM pyruvate, 0.15% Na-bicarbonate and 10% foetal bovine serum (GIBCO, #10270). Stable transfectants were generated by selection with 300 μg/ml Hygromycin.
(§2) In preparation of the assay, the two cell lines were plated 24 hours before beginning the test at 10000 cells per well in a 384 micro titre plate (MTP) in […] growth medium. […] The recombinant human Wnt-3a was thereby applied between 2500 and 5 ng/ml in two-fold dilution steps. Selective inhibitory activity for small molecules on the wildtype Wnt pathway was determined after parallel incubation of both (TOP and FOP) HEK293 reporter cell lines with a compound dilution series from 50 μM to 15 nM in steps of 3.16-fold dilutions in CAFTY buffer (130 mM NaCl, 5 mM KCl, 20 mM HEPES, 1 mM MgCl2, 5 mM NaHCO3, pH 7.4) containing 2 mM Ca^2+ and 0.01% BSA.
(§3) The compounds were thereby serially prediluted in 100% DMSO and thereafter 50 fold into the CAFTY compound dilution buffer (described above).

[3] = tested on: HEK293 FOP control reporter cell line; assay: HEK293 FOP control vector reporter assay; conditions: Homo sapiens; HEK293 FOP control reporter cells, EC50 concentration of recombinant Wnt-3a, 16 hours incubation; read-out: HEK FOP IC50
Procedure: as §1
In a parallel approach, HEK293 cells were cotransfected with the FOP control vector and pcDNA3. The FOP vector is identical to the TOP construct, but it contains instead of functional TCF elements a randomized, non-functional sequence. For this transfection a stable transfected cell line was generated as well, based on selection with Geneticin (1 mg/ml).
as §2, §3

With `COc1ccc(C(=O)Nc2ccc(-c3ccccc3)cc2)cc1NC(=O)CN1CCOCC1` [Example 1, N-(biphenyl-4-yl)-4-methoxy-3-[(morpholin-4-ylacetyl)amino]benzamide] the IC50 [1] was 157 nM, the IC50 [2] was ≥ 50000 nM and the IC50 (wildtype Wnt pathway) was 3300 nM. The IC50 [3] was ≥ 50000 nM.

`COc1ccc(C(=O)Nc2ccc(-c3ccccc3)cc2)cc1NC(=O)Cn1cccn1` [Example 2, N-(biphenyl-4-yl)-4-methoxy-3-[(1H-pyrazol-1-ylacetyl)amino]benzamide] was tested, and the IC50 [1] was 3200 nM, the IC50 [2] was ≥ 50000 nM and the IC50 (wildtype Wnt pathway) was 1480 nM. It also gave an IC50 [3] of 50000 nM.

In the case of `CC(C)(C(=O)Nc1cc(C(=O)Nc2ccc(-c3ccccc3)cc2)ccc1C(F)(F)F)n1cccn1` [Example 4, N-(biphenyl-4-yl)-3-{[2-methyl-2-(1H-pyrazol-1-yl)propanoyl]amino}-4-(trifluoromethyl)benzamide], the IC50 [1] is reported as 112 nM, the IC50 [2] is reported as ≥ 50000 nM and the IC50 (wildtype Wnt pathway) is reported as 400 nM. For the same compound, the IC50 [3] was 8600 nM.

`COc1ccc(C(=O)Nc2ccc(-c3ccccc3)cc2)cc1NC(=O)CN1C[C@@H]2C[C@H]1CO2` [Example 7, N-(biphenyl-4-yl)-4-methoxy-3-{[(1S,4S)-2-oxa-5-azabicyclo[2.2.1]hept-5-ylacetyl]amino}benzamide] was tested, and the IC50 [1] was 963 nM, the IC50 [2] was ≥ 50000 nM and the IC50 (wildtype Wnt pathway) was 820 nM. For the same compound, the IC50 [3] was 10000 nM.

With `COc1ccc(C(=O)Nc2ccc(-c3ccccc3)cc2)cc1NC(=O)CN1CC2CCC(C1)O2` [Example 8, N-(biphenyl-4-yl)-4-methoxy-3-[(8-oxa-3-azabicyclo[3.2.1]oct-3-ylacetyl)amino]benzamide] the IC50 [1] was 70 nM, the IC50 [2] was ≥ 50000 nM and the IC50 (wildtype Wnt pathway) was 270 nM. The IC50 [3] was ≥ 50000 nM.

For `O=C(CN1CCOCC1)Nc1cc(C(=O)Nc2ccc(-c3ccccc3)cc2)ccc1C(F)(F)F` [Example 9, N-(biphenyl-4-yl)-3-[(morpholin-4-ylacetyl)amino]-4-(trifluoromethyl)benzamide], the IC50 [1] was 40 nM, the IC50 [2] was ≥ 50000 nM and the IC50 (wildtype Wnt pathway) was 120 nM. For the same compound, the IC50 [3] was ≥ 50000 nM.

With `COC(=O)c1ccc(C(=O)Nc2ccc(-c3ccccc3)cc2)cc1NC(=O)CN1CCOCC1` [Example 12, methyl 4-(biphenyl-4-ylcarbamoyl)-2-[(morpholin-4-ylacetyl)amino]benzoate] the IC50 [1] was 40 nM, the IC50 [2] was ≥ 50000 nM and the IC50 (wildtype Wnt pathway) was 440 nM. For the same compound, the IC50 [3] was ≥ 50000 nM.

With `O=C(CN1CCOCC1)Nc1cc(C(=O)Nc2ccc(-c3ccccc3)cc2)ccc1Br` [Example 13, N-(biphenyl-4-yl)-4-bromo-3-[(morpholin-4-ylacetyl)amino]benzamide] the IC50 [1] was 91 nM, the IC50 [2] was ≥ 50000 nM and the IC50 (wildtype Wnt pathway) was 500 nM. For the same compound, the IC50 [3] was 12000 nM.

With `CC(C(=O)Nc1cc(C(=O)Nc2ccc(-c3ccccc3)cc2)ccc1C(F)(F)F)N1CCOCC1` (centres unmarked) [Example 14, N-(biphenyl-4-yl)-3-{[2-(morpholin-4-yl)propanoyl]amino}-4-(trifluoromethyl)benzamide] the IC50 [1] was 27 nM, the IC50 [2] was ≥ 50000 nM and the IC50 (wildtype Wnt pathway) was 240 nM. The IC50 [3] was 7000 nM.

For `C[C@@H](C(=O)Nc1cc(C(=O)Nc2ccc(-c3ccccc3)cc2)ccc1C(F)(F)F)N1CCOCC1` [Example 15, N-(biphenyl-4-yl)-3-{[(2S)-2-(morpholin-4-yl)propanoyl]amino}-4-(trifluoromethyl)benzamide], the IC50 [1] was 29.6 nM, the IC50 [2] was 39500 nM and the IC50 (wildtype Wnt pathway) was 100 nM. The IC50 [3] was 4000 nM.

For `C[C@H](C(=O)Nc1cc(C(=O)Nc2ccc(-c3ccccc3)cc2)ccc1C(F)(F)F)N1CCOCC1` [Example 16, N-(biphenyl-4-yl)-3-{[(2R)-2-(morpholin-4-yl)propanoyl]amino}-4-(trifluoromethyl)benzamide], the IC50 [1] was 17.9 nM, the IC50 [2] was ≥ 50000 nM and the IC50 (wildtype Wnt pathway) was 26 nM. The IC50 [3] was 7900 nM.

With `CC(C)(C(=O)Nc1cc(C(=O)Nc2ccc(-c3ccccc3)cc2)ccc1C(F)(F)F)N1CCOCC1` [Example 17, N-(biphenyl-4-yl)-3-{[2-methyl-2-(morpholin-4-yl)propanoyl]amino}-4-(trifluoromethyl)benzamide] the IC50 [1] was 240 nM, the IC50 [2] was ≥ 50000 nM and the IC50 (wildtype Wnt pathway) was 290 nM. It also gave an IC50 [3] of 33000 nM.

In the case of `N#Cc1ccc(C(=O)Nc2ccc(-c3ccccc3)cc2)cc1NC(=O)CN1CCOCC1` [Example 18, N-(biphenyl-4-yl)-4-cyano-3-[(morpholin-4-ylacetyl)amino]benzamide], the IC50 [1] is reported as 58.7 nM, the IC50 [2] is reported as ≥ 50000 nM and the IC50 (wildtype Wnt pathway) is reported as 690 nM. For the same compound, the IC50 [3] was 19000 nM.

With `O=C(CN1CCOCC1)Nc1cc(C(=O)Nc2ccc(-c3ccccc3)cc2)ccc1-c1ccco1` [Example 20, N-(biphenyl-4-yl)-4-(2-furyl)-3-[(morpholin-4-ylacetyl)amino]benzamide] the IC50 [1] was 62.5 nM, the IC50 [2] was ≥ 50000 nM and the IC50 (wildtype Wnt pathway) was 120 nM. For the same compound, the IC50 [3] was ≥ 50000 nM.

With `CNC(=O)c1ccc(C(=O)Nc2ccc(-c3ccccc3)cc2)cc1NC(=O)CN1CCOCC1` [Example 22, N^4-(biphenyl-4-yl)-N^1-methyl-2-[(morpholin-4-ylacetyl)amino]terephthalamide] the IC50 [1] was 55.2 nM, the IC50 [2] was ≥ 50000 nM and the IC50 (wildtype Wnt pathway) was 77 nM. The IC50 [3] was ≥ 50000 nM.

With `O=C(CN1CCOCC1)Nc1cc(C(=O)Nc2ccc(-c3ccccc3)cc2)ccc1OC(F)(F)F` [Example 23, N-(biphenyl-4-yl)-3-[(morpholin-4-ylacetyl)amino]-4-(trifluoromethoxy)benzamide] the IC50 [1] was 32 nM, the IC50 [2] was ≥ 50000 nM and the IC50 (wildtype Wnt pathway) was 38 nM. The IC50 [3] was ≥ 50000 nM.

For `CC(C)Oc1ccc(C(=O)Nc2ccc(-c3ccccc3)cc2)cc1NC(=O)CN1CCOCC1` [Example 25, N-(biphenyl-4-yl)-4-isopropoxy-3-[(morpholin-4-ylacetyl)amino]benzamide], the IC50 [1] was 43.7 nM, the IC50 [2] was ≥ 50000 nM and the IC50 (wildtype Wnt pathway) was 120 nM. For the same compound, the IC50 [3] was ≥ 50000 nM.

`CCOc1ccc(C(=O)Nc2ccc(-c3ccccc3)cc2)cc1NC(=O)CN1CCOCC1` [Example 26, N-(biphenyl-4-yl)-4-ethoxy-3-[(morpholin-4-ylacetyl)amino]benzamide] was tested, and the IC50 [1] was 63.7 nM, the IC50 [2] was ≥ 50000 nM and the IC50 (wildtype Wnt pathway) was 970 nM. For the same compound, the IC50 [3] was ≥ 50000 nM.

For `COc1ccc(NC(=O)c2ccc(-c3ccccc3)cc2)cc1NC(=O)Cn1cccn1` [Example 27, N-{4-methoxy-3-[(1H-pyrazol-1-ylacetyl)amino]phenyl}biphenyl-4-carboxamide], the IC50 [1] was 1200 nM, the IC50 [2] was 23000 nM and the IC50 (wildtype Wnt pathway) was 700 nM. For the same compound, the IC50 [3] was 9300 nM.

For `COc1ccc(NC(=O)c2ccc(-c3ccccc3)cc2)cc1NC(=O)C(C)(C)N1CCOCC1` [Example 28, N-(4-methoxy-3-{[2-methyl-2-(morpholin-4-yl)propanoyl]amino}phenyl)biphenyl-4-carboxamide], the IC50 [1] was 1790 nM, the IC50 [2] was ≥ 50000 nM and the IC50 (wildtype Wnt pathway) was 2400 nM. The IC50 [3] was ≥ 50000 nM.

For `COCCOCCOc1ccc(C(=O)Nc2ccc(-c3ccc(C)cc3)cc2)cc1NC(=O)C1(N2CCOCC2)CC1` [Example 221, 4-[2-(2-methoxyethoxy)ethoxy]-N-(4′-methylbiphenyl-4-yl)-3-({[1-(morpholin-4-yl)cyclopropyl]carbonyl}amino)benzamide], the IC50 [1] was 1100 nM and the IC50 [2] was ≥ 50000 nM.

`CN1CCN(CC(=O)Nc2cc(C(=O)Nc3ccc(-c4ccccc4)cc3)ccc2OCC2CC2)CC1` [Example 222, N-(biphenyl-4-yl)-4-(cyclopropylmethoxy)-3-{[(4-methylpiperazin-1-yl)acetyl]amino}benzamide] was tested, and the IC50 [1] was 105 nM and the IC50 [2] was 9000 nM.

With `O=C(Nc1ccc([N+](=O)[O-])cc1Cl)c1cc(Cl)ccc1O` [Ref., niclosamide, reference compound] the IC50 [1] was 1380 nM and the IC50 [2] was 3100 nM.
